# According to US20250325552A1, “SUBSTITUTED THIADIAZOLYL DERIVATIVES AS DNA POLYMERASE THETA INHIBITORS” (IDEAYA Biosciences, Inc., priority 2020, published 2025):
# Biological target: T1, Polθ theta (1-899) (hPolQ) (Homo sapiens (Human), UniProt O75417)
# Experiment: Biological Assay 1: Polθ ATPase activity, NADH oxidation-coupled enzymatic assay (10 nM enzyme, 30 min)
# Format: biochemical
# Conditions: Polθ (1-899) 10 nM, 100 μM ATP, 300 nM dT50 ssDNA; Examples 1 to 268; read-out: ATPase NADH coupling:Standard Screening:hPolQ IC50
# Summary of the method: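 Polθ (1-899) at 10 nM was preincubated with compound for 15 min at room temperature in 20 mM Tris pH 7.80, 80 mM KCl, 10 mM MgCl2. An equal volume of 100 μM ATP, 300 nM dT50 ssDNA and a PK/LDH–NADH coupling system was then added. A340 was read each minute for 30 min. IC50 came from rate slopes over 10-point series with a four-parameter fit.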
# T1 sequence (O75417 1-899): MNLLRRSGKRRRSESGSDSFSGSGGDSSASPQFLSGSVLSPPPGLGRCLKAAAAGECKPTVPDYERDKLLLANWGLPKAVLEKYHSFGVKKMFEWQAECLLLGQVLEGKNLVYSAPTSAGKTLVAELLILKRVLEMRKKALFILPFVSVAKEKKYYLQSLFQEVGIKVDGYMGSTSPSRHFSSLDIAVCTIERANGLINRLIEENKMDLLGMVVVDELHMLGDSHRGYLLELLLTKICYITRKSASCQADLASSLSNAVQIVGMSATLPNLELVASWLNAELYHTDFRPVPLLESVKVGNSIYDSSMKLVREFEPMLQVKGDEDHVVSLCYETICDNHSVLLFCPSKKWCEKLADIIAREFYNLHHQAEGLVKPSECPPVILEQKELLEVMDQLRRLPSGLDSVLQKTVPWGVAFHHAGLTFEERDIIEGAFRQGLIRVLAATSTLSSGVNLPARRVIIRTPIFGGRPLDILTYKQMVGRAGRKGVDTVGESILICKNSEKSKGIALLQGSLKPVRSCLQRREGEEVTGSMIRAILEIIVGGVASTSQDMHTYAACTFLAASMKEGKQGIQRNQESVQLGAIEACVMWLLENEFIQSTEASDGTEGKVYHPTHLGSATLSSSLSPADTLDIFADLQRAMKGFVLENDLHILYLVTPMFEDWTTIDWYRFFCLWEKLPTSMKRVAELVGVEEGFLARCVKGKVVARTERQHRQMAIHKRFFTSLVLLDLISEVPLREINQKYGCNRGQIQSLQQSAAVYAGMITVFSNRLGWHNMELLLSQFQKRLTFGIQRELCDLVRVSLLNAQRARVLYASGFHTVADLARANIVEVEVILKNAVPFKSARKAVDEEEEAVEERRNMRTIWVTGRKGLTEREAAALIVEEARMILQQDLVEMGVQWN
row,Compound,IC50
1,"COc1cnc(C)c(F)c1-c1cc(C)ncc1C(=O)Nc1nnc(OC[C@H]2CCOC2)s1 [Example 249, 3′-fluoro-5′-methoxy-2′,6-dimethyl-N-(5-(((S)-tetrahydrofuran-3-yl)methoxy)-1,3,4-thiadiazol-2-yl)-(4,4′-bipyridine)-3-carboxamide]",≤ 200 nM
2,"COc1cnc(C)c(F)c1-c1cc(C)ncc1C(=O)Nc1nnc(OC[C@@H]2CCOC2)s1 [Example 250, 3′-fluoro-5′-methoxy-2′,6-dimethyl-N-(5-(((R)-tetrahydrofuran-3-yl)methoxy)-1,3,4-thiadiazol-2-yl)-(4,4′-bipyridine)-3-carboxamide]",≤ 200 nM
3,"COc1cnc(Cl)cc1-c1cc(C)ncc1C(=O)Nc1nnc(OCC2CCCC2O)s1 (stereo not shown) [Example 261, 2′-chloro-N-(5-((2-hydroxycyclopentyl)methoxy)-1,3,4-thiadiazol-2-yl)-5′-methoxy-6-methyl-(4,4′-bipyridine)-3-carboxamide]",≤ 200 nM
4,"COc1cnc(Cl)cc1-c1cc(C)ncc1C(=O)Nc1nnc(OCC2COC(C)C2)s1 (stereo not shown) [Example 262, 2′-chloro-5′-methoxy-6-methyl-N-(5-((5-methyltetrahydrofuran-3-yl)methoxy)-1,3,4-thiadiazol-2-yl)-(4,4′-bipyridine)-3-carboxamide]",≤ 200 nM
5,"COc1ccccc1-c1cnccc1C(=O)Nc1nnc(OCC2CCOCC2)s1 [compound 1, 3-(2-methoxyphenyl)-N-(5-((tetrahydro-2H-pyran-4-yl)methoxy)-1,3,4-thiadiazol-2-yl)isonicotinamide]",200 to 500 nM
6,"COc1ccccc1-c1cnccc1C(=O)Nc1nnc(OCC2CCCCO2)s1 (stereo not shown) [compound 2, 3-(2-methoxyphenyl)-N-(5-((tetrahydro-2H-pyran-2-yl)methoxy)-1,3,4-thiadiazol-2-yl)isonicotinamide]",200 to 500 nM
7,"COc1ccccc1-c1cnccc1C(=O)Nc1nnc(OCC2CCCc3[nH]ncc32)s1 (stereo not shown) [compound 3, 3-(2-methoxyphenyl)-N-(5-(4,5,6,7-tetrahydro-1H-indazol-4-ylmethoxy)-1,3,4-thiadiazol-2-yl)pyridine-4-carboxamide]",≤ 200 nM
8,"COc1ccccc1-c1cc(C)ncc1C(=O)Nc1nnc(OCc2ccc(C3(C(=O)O)CC3)cn2)s1 [compound 4, 1-(6-(((5-(4-(2-methoxyphenyl)-6-methylnicotinamido)-1,3,4-thiadiazol-2-yl)oxy)methyl)pyridin-3-yl)cyclopropane-1-carboxylic acid]",≤ 200 nM
9,"COc1ccccc1-c1cc(C)ncc1C(=O)Nc1nnc(OCc2ccc(CO)cn2)s1 [compound 5, N-(5-((5-(hydroxymethyl)pyridin-2-yl)methoxy)-1,3,4-thiadiazol-2-yl)-4-(2-methoxyphenyl)-6-methylnicotinamide]",≤ 200 nM
10,"N-(5-(((S)-1,4-dioxan-2-yl)methoxy)-1,3,4-thiadiazol-2-yl)-3′-fluoro-5′-methoxy-2′,6-dimethyl-(4,4′-bipyridine)-3-carboxamide [Example 241]",≤ 200 nM

# Biological target: T1, Polθ theta (1-899) (hPolQ)
# Experiment: Biological Assay 2: Polθ ATPase activity, NADH oxidation-coupled enzymatic assay (5 nM enzyme, 120 min)
# Format: biochemical
# Conditions: Polθ (1-899) 5 nM, 100 μM ATP, 300 nM dT50 ssDNA; Examples 269 to 271; read-out: ATPase NADH coupling:Standard Screening:hPolQ IC50
# Method: The ability of the compounds (Example 269 to Example 271) of described herein to inhibit ATPase activity of Polθ theta (1-899) was determined using the assay described below.
# Polθ Theta ATPase activity was determined by measuring the rate of ATP turn over in a NADH oxidation-coupled enzymatic assay. 11-point dilution series of compounds were used in a 384 well format for the inhibition assays. Polθ theta (1-899) (5 nM) in assay buffer (20 mM Tris HCl (pH 7.80), 80 mM KCl, 10 mM MgCl2, 1 mM DTT, 0.01% BSA, 0.01% Tween, 5% glycerol) was transferred to the test wells (20 μL), except the low control wells (20 μL of assay buffer was added to the low control wells). The plate was then incubated at room temperature for 15 min. An equal volume (20 μL) of 100 μM ATP, 300 nM dT50 (single-stranded DNA (ssDNA) containing 50 thymine bases), 300 μM NADH, 6 mM PEP, 10 U/mL lactate dehydrogenase and U/mL pyruvate kinase in assay buffer was added to all the test wells. The plate was then centrifuged at 1000 rpm for 1 min. The reaction was monitored for 120 min by measuring absorbance (λ=340 nm) in a PHERAstar FSX multimode plate reader every 3 minute. The high control (DMSO with enzyme) with low absorbance intensity represents no inhibition of ATPase reaction while the low control (DMSO with buffer) with high absorbance intensity represents full inhibition of ATPase activity. Slope of the reaction progress curves were used to calculate the rate of ATP hydrolysis. The rates were used to determine the percent inhibition using a four-parameter inhibition model to generate IC50, Hill slope and max inhibition.
row,Compound,IC50
1,"COc1cnc(Cl)cc1-c1cc(C)ncc1C(=O)Nc1nnc(OCC2(F)CN(C)C2)s1 [Example 269, 2′-chloro-N-(5-((3-fluoro-1-methylazetidin-3-yl)methoxy)-1,3,4-thiadiazol-2-yl)-5′-methoxy-6-methyl-(4,4′-bipyridine)-3-carboxamide]",≤ 200 nM
2,"COc1cnc(Cl)cc1-c1cc(C)ncc1C(=O)Nc1nnc(OC[C@@H]2CCN(C(C)=O)C2)s1 [Example 270, (R)—N-(5-((1-acetylpyrrolidin-3-yl)methoxy)-1,3,4-thiadiazol-2-yl)-2′-chloro-5′-methoxy-6-methyl-(4,4′-bipyridine)-3-carboxamide]",1000 to 10000 nM
3,"COc1cnc(Cl)cc1-c1cc(C)ncc1C(=O)Nc1nnc(OCC(C)(C)N2CCNC2=O)s1 [Example 271, 2′-chloro-5′-methoxy-6-methyl-N-(5-(2-methyl-2-(2-oxoimidazolidin-1-yl)propoxy)-1,3,4-thiadiazol-2-yl)-(4,4′-bipyridine)-3-carboxamide]",≤ 200 nM
